The values below come from patent US20170105969A1, “CENICRIVIROC FOR THE TREATMENT OF HIV-2 INFECTION” (Tobira Therapeutics, Inc., priority 2014, published 2017).

Marks after values point to notes of the source that are not given here.

Data set [1] concerns the target T1, CCR7 (Homo sapiens, UniProt P32248).
T1 sequence (P32248 25-378): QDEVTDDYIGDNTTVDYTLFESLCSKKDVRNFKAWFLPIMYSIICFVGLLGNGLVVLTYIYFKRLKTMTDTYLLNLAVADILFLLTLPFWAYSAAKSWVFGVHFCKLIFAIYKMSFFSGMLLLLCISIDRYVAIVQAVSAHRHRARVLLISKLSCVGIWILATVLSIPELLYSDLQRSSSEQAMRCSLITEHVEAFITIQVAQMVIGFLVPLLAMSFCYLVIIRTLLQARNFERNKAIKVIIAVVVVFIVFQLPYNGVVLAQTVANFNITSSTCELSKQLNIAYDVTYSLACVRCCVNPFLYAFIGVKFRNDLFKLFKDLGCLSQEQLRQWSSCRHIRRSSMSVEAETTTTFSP
As to the kind of experiment: Ligand binding to CCR7.

Data set [2] relates to HIV-1. Put plainly: Study 202: virologic response (plasma HIV-1 RNA <50 copies/mL), Snapshot algorithm, ITT. Format: in vivo, human.

For the compound `CCCCOCCOc1ccc(-c2ccc3c(c2)/C=C(/C(=O)Nc2ccc([S@@+]([O-])Cc4cncn4CCC)cc2)CCCN3CC(C)C)cc1` [CVC, (S)-8-[4-(2-Butoxyethoxy)phenyl]-1-isobutyl-N-(4-{[(1-propyl-1H-imidazol-5-yl)methyl]sulfinyl}phenyl)-1,2,3,4-tetrahydro-1-benzazocine-5-carboxamide], the “inhibition of ligand binding (in words)” value in data set [1] is given as “did not inhibit”. Besides, the “HIV-1 RNA ≧50 but <400 copies/mL” value in data set [2] (Week 24, CVC 100 mg arm) is on record as “(5%)^d”. The “HIV-1 RNA ≧400 copies/mL” value in data set [2] (Week 24, CVC 200 mg arm) was “(7%)”. The “virologic non-response, subgroup with high baseline viral load (≧100,000 copies/mL)” value in data set [2] (Week 48, CVC 100 mg) is listed as 20%; in data set [2] (Week 48, CVC 200 mg), 21%. Further, the “Treatment difference from EFV arm” value in data set [2] (Week 48, CVC 100 mg arm) was found to be 18%; in data set [2] (Week 48, CVC 200 mg arm), 16%. Also, in data set [2] (Week 48, CVC 200 mg arm), the “Discontinued study due to AE or death” value is “(2%)”. Moreover, the “Week 48 non-response, CVC-treated Black or African American subjects” value in data set [2] (Week 48, both CVC arms) is 8-15%.
